Experimental data reported in ChEMBL document CHEMBL6087389, “Hydrazone-Functionalized trans-A2B-Corroles: Effective Synergy in Photodynamic Therapy of Lung Cancer” (J Med Chem, 2024).
The source made the active and inactive calls. No cut-off for these calls is given here.

Experiments:
A549 [1] = experiment: Induction of apoptosis in human A549 cells assessed as reduction in viable cells at 100 nM preincubated for 24 hrs followed by irradiated with 7.5 to 10 mW/cm^-2 red light for 24 hrs by Annexin V and propidium iodide staining based flow cytometry relative to control; assay type: functional; settings: time 48 hrs
[2] = Fluorescence property of the compound in DMSO assessed as fluorescence quantum yield by photoluminescence quantum yield spectrometer; assay type: physicochemical
NCI-H1299 [3] = experiment: Dark toxicity against human NCI-H1299 cells assessed as reduction in metabolic activity at 10 uM incubated for 4 hrs by MTT assay; assay type: cell-based; set-up: scale not given: the % may be the effect or the level left; settings: nci-h1299, 4 h
A549 [4] = experiment: Induction of apoptosis in human A549 cells assessed as late apoptotic/necrotic cells at 500 nM preincubated for 24 hrs followed by irradiated with 7.5 to 10 mW/cm^-2 red light for 24 hrs by Annexin V and propidium iodide staining based flow cytometry relative to control; assay type: functional; settings: time 48 hrs
A549 [5] = experiment: Induction of apoptosis in human A549 cells assessed as viable cells at 500 nM preincubated for 24 hrs followed by irradiated with 7.5 to 10 mW/cm^-2 red light for 24 hrs by Annexin V and propidium iodide staining based flow cytometry relative to control; assay type: functional; settings: A549, light or radiation study, time 48 hrs, read-out: Activity
NCI-H1299 [6] = experiment: Dark toxicity against human NCI-H1299 cells assessed as reduction in metabolic activity at <1 uM incubated for 4 hrs by MTT assay; assay type: cell-based; settings: nci-h1299, 4 h
[7] = Induction of singlet oxygen generation in THF assessed as singlet oxygen quantum yield by comparative photoluminescence method; assay type: functional
NCI-H1299 [8] = experiment: Induction of apoptosis in human NCI-H1299 cells assessed as late apoptotic/necrotic cells at 100 nM preincubated for 24 hrs followed by irradiated with 7.5 to 10 mW/cm^-2 red light for 24 hrs by Annexin V and propidium iodide staining based flow cytometry relative to control; assay type: functional; settings: time 48 hrs
[9] = Phototoxicity against human A549 cells assessed as reduction in cell viability preincubated for 24 hrs followed by 7.5 to 10 mW/cm^-2 red light irradiation and measured after 24 hrs by MTT assay; assay type: functional, cell-based; settings: A549, light or radiation study
[10] = Phototoxicity against human NCI-H1299 cells assessed as reduction in cell viability preincubated for 24 hrs followed by 7.5 to 10 mW/cm^-2 red light irradiation and measured after 24 hrs by MTT assay; assay type: functional, cell-based; settings: NCI-H1299, light or radiation study
A549 [11] = experiment: Induction of apoptosis in human A549 cells assessed as late apoptotic/necrotic cells at 100 to 500 nM preincubated for 24 hrs followed by irradiated with 7.5 to 10 mW/cm^-2 red light for 24 hrs by Annexin V and propidium iodide staining based flow cytometry relative to control; assay type: functional; settings: dose 100-500 nM, time 48 hrs
NCI-H1299 [12] = experiment: Induction of apoptosis in human NCI-H1299 cells assessed as early apoptotic cells at 500 nM preincubated for 24 hrs followed by irradiated with 7.5 to 10 mW/cm^-2 red light for 24 hrs by Annexin V and propidium iodide staining based flow cytometry relative to control; assay type: functional; settings: time 48 hrs
[13] = Fluorescence property of the compound in THF assessed as fluorescence quantum yield by photoluminescence quantum yield spectrometer; assay type: physicochemical
NCI-H1299 [14] = experiment: Induction of apoptosis in human NCI-H1299 cells assessed as reduction in viability at 100 to 500 nM preincubated for 24 hrs followed by irradiated with 7.5 to 10 mW/cm^-2 red light for 24 hrs by Annexin V and propidium iodide staining based flow cytometry relative to control; assay type: functional; settings: dose 100-500 nM, time 48 hrs
A549 [15] = experiment: Dark toxicity against human A549 cells assessed as reduction in metabolic activity at 10 uM incubated for 4 hrs by MTT assay; assay type: cell-based; settings: a549, 4 h
A549 [16] = experiment: Induction of apoptosis in human A549 cells assessed as early apoptotic cells at 100 to 500 nM preincubated for 24 hrs followed by irradiated with 7.5 to 10 mW/cm^-2 red light for 24 hrs by Annexin V and propidium iodide staining based flow cytometry relative to control; assay type: functional; settings: dose 100-500 nM, time 48 hrs
NCI-H1299 [17] = experiment: Induction of apoptosis in human NCI-H1299 cells assessed as early apoptotic cells at 100 nM preincubated for 24 hrs followed by irradiated with 7.5 to 10 mW/cm^-2 red light for 24 hrs by Annexin V and propidium iodide staining based flow cytometry relative to control; assay type: functional; settings: time 48 hrs
NCI-H1299 [18] = experiment: Induction of apoptosis in human NCI-H1299 cells assessed as late apoptotic/necrotic cells at 500 nM preincubated for 24 hrs followed by irradiated with 7.5 to 10 mW/cm^-2 red light for 24 hrs by Annexin V and propidium iodide staining based flow cytometry relative to control; assay type: functional; settings: time 48 hrs
A549 [19] = experiment: Dark toxicity against human A549 cells assessed as reduction in metabolic activity at <1 uM incubated for 4 hrs by MTT assay; assay type: cell-based; settings: a549, 4 h
NCI-H1299 [20] = experiment: Induction of apoptosis in human NCI-H1299 cells assessed as appearance of necrosis at 100 to 250 nM preincubated for 24 hrs followed by irradiated with 7.5 to 10 mW/cm^-2 red light for 24 hr by May-Grunwald/Giemsa staining by light microscopic analysis; assay type: functional, cell-based; settings: dose 100-250 nM, time 48.0 hrs

Molecule `C/C(=N\NS(=O)(=O)c1ccc(C)cc1)c1c2nc(c(-c3ccccc3)c3ccc([nH]3)c3ccc([nH]3)c(-c3ccccc3)c3ccc1[nH]3)C=C2` has an Activity (A549 [1]) of 48%, an Activity [2] of 0.282 and an Activity (NCI-H1299 [3]) of 73.8%. For the same molecule, the Activity (A549 [4]) was 92.7%, the viability at 0.5 µM (A549 [5]) was 2% and the Activity (NCI-H1299 [6]) was “Non-toxic”. For the same molecule, the Activity [7] was 0.26, the Activity (NCI-H1299 [8]) was 23.2% and the IC50 [9] was 101 nM. The IC50 [10] was 52.3 nM, the Activity (A549 [11]) was 24.6% and the Activity (NCI-H1299 [12]) was 19.8%. For the same molecule, the Activity [13] was 0.114, the Activity (NCI-H1299 [14]) was “>=75%” and the Activity (A549 [15]) was “Non-toxic”. It also gave an Activity (A549 [16]) of 16.9%, an Activity (NCI-H1299 [17]) of 12.7% and an Activity (NCI-H1299 [18]) of 75.5%. For the same molecule, the Activity (A549 [19]) was “Non-toxic” and the Activity (NCI-H1299 [20]) was “Active”.
